Counter-ions that a name gives are not always drawn. Like-named read-outs stand apart in the source and are kept apart here.
Tests used:
Assay in all cases: microbe, parasite or virus in culture
[1] = system: Pseudotyped HCV GT1b particles (HCVpp), entry into Huh7-high CD81 cells; format: cell-based, HCV GT1b Con1 strain
[2] = system: Pseudotyped HCV GT1a particles (HCVpp), entry into Huh7-high CD81 cells; format: cell-based, HCV GT1a H77 strain; settings: Hepatitis C virus, 72 h, read-out: HCVpp GT-1a (EC50, μM)
[3] = system: pseudotyped VSV G particles (VSVpp) in Huh7-high CD81 cells; format: cell-based, vesicular stomatitis virus
[4] = Hepatitis C virus, GT1B, 72 h, read-out: HCVpp GT-1b (EC50, μM)
[5] = Vesicular stomatitis virus, 72 h, read-out: VSVpp (EC50, μM)

| Molecule | EC50 [1, 4] | EC50 [2] | EC50 [3, 5] | EC50 ([1]; read-out: HCVpp GT-1b (EC50)) | EC50 ([3]; read-out: VSVpp (EC50)) |
| --- | --- | --- | --- | --- | --- |
| Nc1nc(Nc2ccc(-c3ccc(NC(=O)CCCC[C@@H]4SC[C@@H]5NC(=O)N[C@@H]54)cc3)cc2)n[nH]1 (stereo in doubt) [Compound 54, 5-((3aS,4S,6aR)-2-Oxo-hexaneahydro-thieno[3,4-d]imidazol-4-yl)-pentanoic acid [4′-(5-amino-1H-[1,2,4]triazol-3-ylamino)-biphenyl-4-yl]-amide] | 10 µM | 5.73 µM | > 10 µM | – | – |
| CC(C)(C)OC(=O)N1CCC(S(=O)(=O)c2ccc(-c3c(Cl)cc(Nc4n[nH]c(N)n4)cc3C(F)(F)F)cc2)CC1 [Compound 1, 4-[4′-(5-Amino-1H-[1,2,4]triazol-3-ylamino)-2′-chloro-6′-trifluoromethyl-biphenyl-4-sulfonyl]-piperidine-1-carboxylic acid tert-butyl ester] | 0.001 µM | 0.014 µM | > 10 µM | – | – |
| CS(=O)(=O)NCc1ccc(-c2c(Cl)cc(Nc3n[nH]c(N)n3)cc2Cl)cc1 [Compound 12, N-[4′-(5-Amino-1H-[1,2,4]triazol-3-ylamino)-2′,6′-dichloro-biphenyl-4-ylmethyl]-methanesulfonamide] | 0.035 µM | 0.003 µM | 18.3 µM | – | – |
| CC(C)S(=O)(=O)c1ccc(-c2c(F)cc(Nc3n[nH]c(N)n3)cc2Cl)cc1 [Compound 23, N*3*-[2-Chloro-6-fluoro-4′-(propane-2-sulfonyl)-biphenyl-4-yl]-1H-[1,2,4]triazole-3,5-diamine] | 0.092 µM | 0.023 µM | > 10 µM | – | – |
| N#CCCCOc1ccc(-c2c(Cl)cc(Nc3n[nH]c(N)n3)cc2Cl)cc1 [Compound 26, 4-[4′-(5-Amino-1H-[1,2,4]triazol-3-ylamino)-2′,6′-dichloro-biphenyl-4-yloxy]-butyronitrile] | 0.116 µM | 0.008 µM | 3.79 µM | – | – |
| CS(=O)(=O)Cc1ccc(-c2c(Cl)cc(Nc3n[nH]c(N)n3)cc2Cl)cc1 [Compound 31, N*3*-(2,6-Dichloro-4′-methanesulfonylmethyl-biphenyl-4-yl)-1H-[1,2,4]triazole-3,5-diamine] | 0.086 µM | 0.004 µM | 3.23 µM | – | – |
| Nc1nc(Nc2cc(Cl)c(-c3ccc(OCC4CNC4)cc3)c(Cl)c2)n[nH]1 [Compound 32, N*3*-[4′-(Azetidin-3-ylmethoxy)-2,6-dichloro-biphenyl-4-yl]-1H-[1,2,4]triazole-3,5-diamine; hydrochloride] | 0.116 µM | 0.006 µM | 6.1 µM | – | – |
| Nc1nc(Nc2cc(Cl)c(-c3ccc(S(=O)(=O)N4CCNCC4)cc3)c(C(F)(F)F)c2)n[nH]1 [Compound 33, N*3*-[2-Chloro-4′-(piperazine-1-sulfonyl)-6-trifluoromethyl-biphenyl-4-yl]-1H-[1,2,4]triazole-3,5-diamine] | 0.099 µM | 0.019 µM | 34.3 µM | – | – |
| CN(C)S(=O)(=O)c1ccc(-c2c(F)cc(Nc3n[nH]c(N)n3)cc2Cl)cc1 [Compound 34, 4′-(5-Amino-1H-[1,2,4]triazol-3-ylamino)-2′-chloro-6′-fluoro-biphenyl-4-sulfonic acid dimethylamide] | 0.122 µM | 0.028 µM | > 10 µM | – | – |
| Nc1nc(Nc2cc(Cl)c(-c3ccc(NC(=O)CCCC[C@@H]4SC[C@@H]5NC(=O)N[C@@H]54)cc3)c(Cl)c2)n[nH]1 [Compound 39, 5-((3aS,4S,6aR)-2-Oxo-hexaneahydro-thieno[3,4-d]imidazol-4-yl)-pentanoic acid [4′-(5-amino-1H-[1,2,4]triazol-3-ylamino)-2′,6′-dichloro-biphenyl-4-yl]-amide] | 0.09 µM | 0.002 µM | > 10 µM | – | – |
| Nc1nc(Nc2cc(Cl)c(-c3ccccc3)c(Cl)c2)n[nH]1 [Compound 48, N*3*-(2,6-Dichloro-biphenyl-4-yl)-1H-[1,2,4]triazole-3,5-diamine] | 0.533 µM | 0.01 µM | 30.5 µM | – | – |
| Nc1nc(Nc2ccc(-c3ccccc3)cc2)n[nH]1 [Compound 55, N*3*-Biphenyl-4-yl-1H-[1,2,4]triazole-3,5-diamine] | 100 µM | 25.1 µM | 100 µM | – | – |
| CS(=O)(=O)c1cccc(-c2c(F)cc(Nc3nc(N)n[nH]3)cc2C(F)(F)F)c1 [Compound 74, N^5-(2-Fluoro-3′-(methylsulfonyl)-6-trifluoromethylbiphenyl-4-yl)-1H-[1,2,4]-triazole-3,5-diamine] | 0.169 µM | 0.055 µM | 16.9 µM | – | – |
| Nc1nc(Nc2cc(Cl)c(-c3ccc(OC(F)(F)F)cc3)c(Cl)c2)n[nH]1 [Compound 91, N-3-(2,6-Dichloro-4′-trifluoromethyoxy-biphenyl-4-yl)-1H[1,2,4]triazole-3,5-diamine] | 1.13 µM | 0.065 µM | 23.3 µM | – | – |
| Nc1nc(Nc2cc(Cl)c(-c3cccc(Cl)c3)c(Cl)c2)n[nH]1 [Compound 92, N3-(2,3′,6-Trichlorobiphenyl-4-yl)-1H-1,2,4-triazole-3,5-diamine] | 0.57 µM | 0.034 µM | 35.5 µM | – | – |
| N#Cc1ccc(-c2c(Cl)cc(Nc3n[nH]c(N)n3)cc2Cl)cc1 [Compound 93, 4′-(5-Amino-1H-1,2,4-triazol-3-ylamino)-2′,6′-dichlorobiphenyl-4-carbonitrile] | 0.364 µM | 0.015 µM | 14.8 µM | – | – |
| CC(C)S(=O)(=O)c1ccc(-c2c(Cl)cc(Nc3n[nH]c(N)n3)cc2C(F)(F)F)cc1 [Compound 181, N3-(2-chloro-4′-(isopropylsulfonyl)-6-(trifluoromethyl)biphenyl-4-yl)-1H-1,2,4-triazole-3,5-diamine] | 0.059 µM | 0.021 µM | – | – | – |
| CC(C)(C)NS(=O)(=O)c1ccc(-c2c(Cl)cc(Nc3n[nH]c(N)n3)cc2C(F)(F)F)cc1OC(F)(F)F [Compound 217, 4′-(5-Amino-1H-[1,2,4]triazol-3-ylamino)-6′-chloro-3-trifluoromethoxy-2′-trifluoromethylbiphenyl-4-sulfonic acid tert-butylamide] | – | 0.003 µM | 7.5 µM | – | – |
| CC(C)(C)NS(=O)(=O)c1ccc(-c2c(Cl)cc(Nc3n[nH]c(N)n3)cc2C(F)(F)F)cc1 [Compound 219, 4′-(5-Amino-1H-[1,2,4]triazol-3-ylamino)-6′-chloro-2′-trifluoromethyl-biphenyl-4-sulfonic acid tert-butylamide] | – | 0.011 µM | 16.2 µM | – | – |
| Nc1nc(Nc2cc(Cl)c(-c3ccc(F)c(C(=O)NCCO)c3)c(C(F)(F)F)c2)n[nH]1 [Compound 294, 4′-(5-amino-1H-1,2,4-triazol-3-ylamino)-2′-chloro-4-fluoro-N-(2-hydroxyethyl)-6′-(trifluoromethyl)biphenyl-3-carboxamide] | 0.544 µM | – | 38.3 µM | – | – |
| Nc1nc(Nc2cc(Cl)c(-c3ccc(S(=O)(=O)NC4COC4)cc3)c(C(F)(F)F)c2)n[nH]1 [Compound 295, 4′-(5-amino-1H-1,2,4-triazol-3-ylamino)-2′-chloro-N-(oxetan-3-yl)-6′-(trifluoromethyl)biphenyl-4-sulfonamide] | 0.022 µM | – | 10 µM | – | – |
| [4′-(5-amino-1H-[1,2,4]triazol-3-ylamino)-2′-chloro-6′-trifluoromethyl-biphenyl-4-yl]-carbamic acid propyl ester [Compound 238] | – | – | – | 0.078 µM | 24.9 µM |
